We go through 35 molecules from patent US10273238B2, “Indazolones as modulators of TNF signaling” (AbbVie Inc., priority 2015, dated 2019).

This assay concerns the target TNFα (Homo sapiens, UniProt P01375). The assay is described as follows: TNFα FP Competitive Binding Assay. The conditions noted are these: 20 nM TNFα trimer, 1 nM OregonGreen488 probe, read-out: TNF IC50. Here is the method: TNFα FP Competitive Binding Assay
Prepare 1× Assay Buffer (Water with 47 mil HEPES, 47 mM NaCl, 0.9 mM EDTA, 0.0071% Triton X-100) by adding 25 mL of 1 M HEPES, 5 mL of 5 M NaCl, 1 mL of 0.5 M EDTA, and 375 μL of a 10% Triton X-100 stock to a fresh 500 mL bottle of water.
Prepare fresh Assay Mixture containing 20 nM TNFα trimer (60 nM protein) and 1 nM 2′,7′-difluoro-3′,6′-dihydroxy-N-(2-(2-(2-((4-(isoquinolin-8-yl)-3-(4-(isoquinolin-8-yl)phenethoxy)benzyl)oxy)ethoxy)ethoxy)ethyl)-3-oxo-3H- spiro[isobenzofuran-1,9′-xanthene]-5-carboxamide probe in 1× Assay Buffer.
Top concentration of compounds, 10 mM in DMSO, dispensed in rows A-O in columns 1 and 13. Compounds are serially diluted 1:3 with DMSO in columns 2-12 or 14-24 using a 16-channel Matrix pipettor. Plates stored at −20° C.
Top concentration, 5 mM in DMSO, of compounds placed in rows A-O in columns 1 and 13.
Compounds are serially diluted 1:3 with DMSO in columns 2-12 or 14-24. Compound solutions are dispensed into replicate assay plates at 410 nL per well. Plates stored at 4° C.
TNFα FP Competitive Binding Assay Protocol • 1. Compound plates warmed to rt. • 2. Fresh Assay Mixture is prepared. • 3. Assay Mixture (20 μL) is dispensed each well of 384 assay plates using a Thermo Multidrop Combi or 16-channel Matrix pipettor. If Manual 12-point 1:3 Dilution Plates are to be tested, Assay Mix is dispensed into empty plates. Discovery Preps 12-point 1:3 Dilution Plates already contain 410 nL compound solution in DMSO. • 4. For Manual 12-point 1:3 Dilution Plates, 0.7 μL is manually transferred using a 16-channel Matrix pipettor to replicate assay plates containing 20 μL Assay Mixture for a final top compound concentration of […] (3.4% DMSO). • 5. For Discovery Preps 12-point 1:3 Dilution Plates, 20 μL Assay Mixture added the 410 nL compound solution already in the plates yields a final top compound concentration of 100 μM (2.0% DMSO). • 6. Background subtraction controls are wells P1-P8 containing only Assay Buffer. The low % inhibition controls are wells P9-P16 containing only Assay Mix. The high % inhibition are wells P17-P24 containing only 1 nM 2′,7′-difluoro-3′,6′-dihydroxy-N-(2-(2-(2-((4-(isoquinolin-8-yl)-3-(4-(isoquinolin-8-yl)phenethoxy)benzyl)oxy)ethoxy)ethoxy)ethyl)-3-oxo-3H-spiro[isobenzofuran-1,9′-xanthene]-5-carboxamide probe in 1× Assay Buffer. • 7. Plates are incubated at rt for 18-24 h in […] (CO2 is off). • 8. Prior to reading the assay, the plates are placed in a dark cabinet to equilibrate at rt for one hour. • 9. Background-subtracted fluorescence polarization (mP) is measured using a PerkinElmer Envision plate reader. • 10. Raw data is entered into Assay Explorer and dose-response curves are generated using a variable slope curve.

In general, IC50 refers to the midpoint of a concentration-inhibition curve.

Sequence of TNFα (P01375 77-233 limits assumed): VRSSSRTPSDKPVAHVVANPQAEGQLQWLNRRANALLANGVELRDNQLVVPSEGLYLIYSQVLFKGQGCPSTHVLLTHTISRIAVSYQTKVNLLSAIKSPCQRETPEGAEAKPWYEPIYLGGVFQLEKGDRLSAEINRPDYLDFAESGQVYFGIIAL

Turning to `O=c1c2ccc(-c3cnc(N4CCC(O)CC4)nc3)cc2n2n1CCC2c1ccccc1OC(F)F` (centres unmarked) [Example 4.2, 3-(2-(difluoromethoxy)phenyl)-6-(2-(4-hydroxypiperidin-1-yl)pyrimidin-5-yl)-2,3-dihydropyrazolo[1,2-c]indazol-9(1H)-one], the IC50 was less than 1000 nM. With `COC[C@H]1CCCN1c1ncc(-c2ccc3c(c2)[C@@H]2[C@H](c4ccccc4OC(F)F)CCN2C3=O)cn1` (single isomer, unassigned) [Example 10.3], the IC50 fell in the range of 1000 to 10000 nM. Regarding `CC(C)(O)c1ncc(-c2cc3c(cc2F)c(=O)n2n3[C@@H](c3ccccc3OC(F)F)CC2)cn1` (single isomer, unassigned) [Example 12.1], the IC50 is less than 1000 nM. Take `CC(C)(O)c1ncc(-c2ccc3c(c2)[C@@H]2[C@H](c4ccccc4OC(F)F)CCN2C3=O)cn1` (single isomer, unassigned) [Example 10.1]: the IC50 was greater than 10000 nM.

For `O=C1NC[C@H]2CN(c3ncc(-c4ccc5c(c4)[C@H]4[C@@H](c6ccccc6OC(F)F)CCN4C5=O)cn3)CCN12` (single isomer, unassigned) [Example 11.2], the IC50 is less than 1000 nM. With `COc1ccc(CO)cc1C1CCn2c(=O)c3ccc(-c4cnc(N5CCOCC5)nc4)cc3n21` (centres unmarked) [Example 19, 3-(5-(Hydroxymethyl)-2-methoxyphenyl)-6-(2-morpholinopyrimidin-5-yl)-2,3-dihydropyrazolo[1,2-a]indazol-9(1H)-one], the IC50 is 1000 to 10000 nM. `O=C1NC[C@H]2CN(c3ncc(-c4ccc5c(=O)n6n(c5c4)[C@H](c4ccccc4OC(F)F)CC6)cn3)CCN12` (single isomer, unassigned) [Example 5.1]: the IC50 was less than 1000 nM. As to `O=c1c2ccc(-c3cnc(N[C@@H]4CCOC4)nc3)cc2n2n1CC[C@@H]2c1ccccc1OC(F)F` (single isomer, unassigned) [Example 1.6], the IC50 fell in the range of 1000 to 10000 nM.

Take `Cc1nc(C(C)(C)O)ncc1-c1ccc2c(=O)n3n(c2c1)[C@@H](c1ccccc1OC(F)F)CC3` [Example 6.6]: the IC50 is less than 1000 nM. For `O=C1c2ccc(-c3cnc(N4CCOCC4)nc3)cc2[C@H]2[C@@H](c3ccccc3OC(F)F)CCN12` (single isomer, unassigned) [Example 9.2], the IC50 was less than 1000 nM. Regarding `Cc1ccc(OC(F)F)c([C@@H]2CCn3c(=O)c4ccc(-c5cnc(C(C)(C)O)nc5)cc4n32)c1` [Example 14.2], the IC50 is less than 1000 nM. The same measure for `O=C1c2ccc(-c3cnc(N4CCOCC4)nc3)cc2[C@@H]2[C@H](c3ccccc3OC(F)F)CCN12` (single isomer, unassigned) [Example 9.1]: greater than 10000 nM; for `COC[C@H]1CCCN1c1ncc(-c2ccc3c(=O)n4n(c3c2)[C@@H](c2ccccc2OC(F)F)CC4)cn1` (single isomer, unassigned) [Example 1.5]: 1000 to 10000 nM; for `Cc1ccc(OC(F)F)c([C@@H]2CCn3c(=O)c4cc(F)c(-c5cnc(C(C)(C)O)nc5)cc4n32)c1` (single isomer, unassigned) [Example 13.2]: less than 1000 nM.

On to `O=C(O)C1CCN(c2ncc(-c3ccc4c(=O)n5n(c4c3)C(c3ccccc3OC(F)F)CC5)cn2)CC1` (centres unmarked) [Example 1.3, 1-(5-(3-(2-(difluoromethoxy)phenyl)-9-oxo-1,2,3,9-tetrahydropyrazolo[1,2-a]indazol-6-yl)pyrimidin-2-yl)piperidine-4-carboxylic acid], for which the IC50 was in the range of 1000 to 10000 nM. For `O=C1NC[C@@H]2CN(c3ncc(-c4ccc5c(=O)n6n(c5c4)[C@@H](c4ccccc4OC(F)F)CC6)cn3)CCN12` (single isomer, unassigned) [Example 6.2], the IC50 was less than 1000 nM.

With `COc1ccc(C#N)cc1C1CCn2c(=O)c3ccc(-c4cnc(N5CCOCC5)nc4)cc3n21` (centres unmarked) [Example 8.3, 4-methoxy-3-(6-(2-morpholinopyrimidin-5-yl)-9-oxo-1,2,3,9-tetrahydropyrazolo[1,2-a]indazol-3-yl)benzonitrile], the IC50 was in the range of 1000 to 10000 nM. The same measure for `Cc1ccc(OC(F)F)c([C@H]2CCn3c(=O)c4ccc(-c5cnc(C(C)(C)O)nc5)cc4n32)c1` (single isomer, unassigned) [Example 15.2]: less than 1000 nM; for `Cc1ccc(OC(F)F)c([C@H]2CCn3c(=O)c4ccc(-c5cnc(N6CCN7C(=O)NC[C@H]7C6)nc5)cc4n32)c1` (single isomer, unassigned) [Example 15.1]: less than 1000 nM; for `O=c1c2ccc(-c3cnc(N4CCO[C@@H](CO)C4)nc3)cc2n2n1CC[C@H]2c1ccccc1OC(F)F` (single isomer, unassigned) [Example 1.9]: less than 1000 nM. Consider `CC(=O)N1CCN(c2ncc(-c3ccc4c(=O)n5n(c4c3)[C@@H](c3ccccc3OC(F)F)CC5)cn2)[C@H](C)C1` [Example 6.5, (R)-6-(2-((R)-4-acetyl-2-methylpiperazin-1-yl)pyrimidin-5-yl)-3-(2-(difluoromethoxy)phenyl)-2,3-dihydropyrazolo[1,2-a]indazol-9(1H)-one], for which the half-maximal inhibitory concentration (IC50) was less than 1000 nM. On to `O=c1c2ccc(-c3cnc(N4CCO[C@@H](CO)C4)nc3)cc2n2n1CC[C@@H]2c1ccccc1OC(F)F` (single isomer, unassigned) [Example 1.8], for which the IC50 was less than 1000 nM.

As to `CC(=O)N1CCN(c2ncc(-c3ccc4c(=O)n5n(c4c3)[C@@H](c3ccccc3OC(F)F)CC5)cn2)C[C@H]1C` (single isomer, unassigned) [Example 6.3], the IC50 is less than 1000 nM. `O=c1c2ccc(-c3cnc(N4CCOCC4)nc3)cc2n2n1CCC2c1ccccc1` (centres unmarked) [Example 8.2, 6-(2-morpholinopyrimidin-5-yl)-3-phenyl-2,3-dihydropyrazolo[1,2-a]indazol-9(1H)-one]: the IC50 lay within 1000 to 10000 nM. `Cc1cccc(C2CCn3c(=O)c4ccc(-c5cnc(N6CCOCC6)nc5)cc4n32)c1C#N` (centres unmarked) [Example 8.1, 2-methyl-6-(6-(2-morpholinopyrimidin-5-yl)-9-oxo-1,2,3,9-tetrahydropyrazolo[1,2-a]indazol-3-yl)benzonitrile]: the IC50 is 1000 to 10000 nM.

Take `O=c1c2ccc(-c3cnc(N4CCOCC4)nc3)cc2n2n1CC[C@@H]2c1ccccc1OC(F)F` (single isomer, unassigned) [Example 1.1]: the IC50 is less than 1000 nM. Turning to `CC(C)(O)c1ncc(-c2ccc3c(c2)[C@H]2[C@@H](c4ccccc4OC(F)F)CCN2C3=O)cn1` (single isomer, unassigned) [Example 10.2], the IC50 was in the range of 1000 to 10000 nM. Turning to `Cc1ccc(OC(F)F)c([C@@H]2CCn3c(=O)c4ccc(-c5cnc(N6CCN7C(=O)NC[C@H]7C6)nc5)cc4n32)c1` (single isomer, unassigned) [Example 14.1], the IC50 is less than 1000 nM. In the case of `COC[C@H]1CCCN1c1ncc(-c2ccc3c(=O)n4n(c3c2)[C@H](c2ccccc2OC(F)F)CC4)cn1` (single isomer, unassigned) [Example 1.4], the IC50 lay within 1000 to 10000 nM. The same measure for `CC(C)(O)c1ncc(-c2cc3c(cc2F)c(=O)n2n3[C@H](c3ccccc3OC(F)F)CC2)cn1` (single isomer, unassigned) [Example 12.2]: less than 1000 nM; for `O=c1c2ccc(-c3cnc(N4CCOCC4)nc3)cc2n2n1CC[C@H]2c1ccccc1OC(F)F` (single isomer, unassigned) [Example 1.2]: less than 1000 nM.

For the molecule `O=C1C[C@@H](CNc2ncc(-c3ccc4c(=O)n5n(c4c3)[C@H](c3ccccc3OC(F)F)CC5)cn2)CN1` (single isomer, unassigned) [Example 4.4], the concentration for half-maximal inhibition (IC50) was less than 1000 nM. With `O=C1NC[C@@H]2CN(c3ncc(-c4ccc5c(=O)n6n(c5c4)[C@H](c4ccccc4OC(F)F)CC6)cn3)CCN12` (single isomer, unassigned) [Example 5.2], the IC50 is less than 1000 nM. For `COC[C@H]1CCCN1c1ncc(-c2ccc3c(c2)[C@H]2[C@@H](c4ccccc4OC(F)F)CCN2C3=O)cn1` (single isomer, unassigned) [Example 10.4], the IC50 was greater than 10000 nM. For `O=C1C[C@H](CNc2ncc(-c3ccc4c(=O)n5n(c4c3)[C@@H](c3ccccc3OC(F)F)CC5)cn2)CN1` (single isomer, unassigned) [Example 4.5], the IC50 fell in the range of 1000 to 10000 nM.
